Experiments:
human CRTh2 [1] = molecular target: T1, human CRTh2 (Homo sapiens, UniProt Q9Y5Y4); assay: Filtration binding assay ([3H]-PGD2 competition on CHO.K1-CRTh2 membranes); details: [3H]-PGD2 2.5 nM, Cheng-Prussoff
T1 sequence (Q9Y5Y4 1-395): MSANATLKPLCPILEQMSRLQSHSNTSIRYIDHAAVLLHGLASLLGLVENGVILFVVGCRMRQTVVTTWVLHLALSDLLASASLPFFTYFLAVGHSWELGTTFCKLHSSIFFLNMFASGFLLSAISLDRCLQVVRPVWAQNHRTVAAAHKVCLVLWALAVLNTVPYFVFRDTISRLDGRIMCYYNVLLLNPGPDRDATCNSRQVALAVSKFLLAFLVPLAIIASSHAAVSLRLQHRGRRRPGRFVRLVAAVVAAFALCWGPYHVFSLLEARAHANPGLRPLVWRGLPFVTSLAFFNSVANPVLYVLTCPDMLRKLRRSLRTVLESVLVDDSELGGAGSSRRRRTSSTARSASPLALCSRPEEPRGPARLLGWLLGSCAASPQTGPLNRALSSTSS
Protocol: The binding of CRTh2 antagonists is determined using membranes prepared from human CRTh2-expressing Chinese Hamster Ovary cells (CHO.K1-CRTh2). To produce cell membranes CHO.K1-CRTh2 cells cultured in roller bottles are harvested using cell dissociation buffer (Invitrogen). The cells are pelleted by centrifugation (167 g, 5 min). The cell pellet is incubated in hypotonic buffer (15 mM Tris-OH, 2 mM MgCl2, 0.3 mM EDTA, 1 mM EGTA, 1×Complete™ tablet) at 4° C. for 30 minutes. At 4° C. cells are homogenized using a Polytron® (IKA Ultra Turrax T25) for 5 bursts of 1 second. The homogenate is centrifuged (Beckman Optima TM TL Ultracentrifuge, 48000 g, 30 minutes at 4° C.). The supernatant is discarded and the membrane pellet re-suspended in homogenisation buffer (75 mM Tris-OH, 12.5 mM MgCl2, 0.3 mM EDTA, 1 mM EGTA, 250 mM Sucrose, 1×Complete™ tablet. Membrane preparations are aliquoted and stored at […]. The protein content is estimated using Bradford Protein Assay Dye (Bio Rad).
The binding of [^3H]-PGD2 (157 Ci/mmol) to CHO.K1-CRTh2 membranes is determined in the absence (total binding) and presence (non-specific binding) of unlabelled PGD2 (1 μM). Subtraction of the cpm (counts per minute) of [^3H]-PGD2 binding in presence of excess unlabelled PGD2 from that observed in the absence of excess unlabelled PGD2 is defined as specific binding. Active CRTh2 antagonists are able to compete with [^3H]-PGD2 for binding to the CRTh2 receptor and are identified in a decrease in the number of cpm bound.
The assay is performed in Greiner U-bottomed 96 well-plates, in a final volume of 100 μL per well. CHO.K1-CRTh2 membranes were diluted in assay buffer (10 mM HEPES-KOH (pH 7.4), 1 mM EDTA and 10 mM MnCl2) and 10 μg are added to each well [^3H]-PGD2 is diluted in assay buffer and added to each well at a final concentration of 2.5 nM. To determine non-specific binding, [^3H]-PGD2 binding to the CRTh2 receptor is competed with using unlabelled PGD2 at a final well concentration of 1 μM. The experiment is done in triplicate, with reagents added to the wells as follows: • 25 μL assay buffer for total binding or • 25 μL PGD2 to determine non-specific binding • 25 μL [^3H]PGD2 • […] • 25 μL test compound in DMSO/assay buffer
The plates are incubated at room temperature on a shaker for 1 hour, and then harvested (Tomtec Harvester 9600) onto GF/C filter plates using wash buffer (10 mM HEPES-KOH, pH 7.4). The plate is dried for 2 hours, prior to addition of Micro-Scint 20™ (50 μL) and sealing with TopSeal-S™. Plates are then counted using a Packard Top Count instrument, Plates are then read on the Packard Topcount with the 3H Scintillation program (1 min./well).
Ki (dissocation constant for the inhibition) values for the CRTh2 antagonists are reported. Ki values are determined using Sigma Plot™ software, using the Cheng-Prussoff equation.
(§1) where S is the concentration of radioligand and Kd is the dissociation constant. CRTH2 cAMP Functional Assay Protocol

human CRTh2 [2] = molecular target: T1, human CRTh2; assay: CRTH2 cAMP functional assay in CHO.K1-CRTh2 cells; type: cell-based; details: inhibition of PGD2-mediated attenuation of forskolin-induced cAMP accumulation in CHO.K1-CRTh2 cells
Protocol: as §1
This assay is conducted in CHO.K1-CRTh2 cells. cAMP is generated in the cell by stimulating cells with 5 μM forskolin, an adenylate cyclase activator. PGD2 is added to activate the CRTh2 receptor which results in the attenuation of the forskolin-induced cAMP accumulation. Potential CRTh2 antagonists are tested for their ability to inhibit the PGD2− mediated attenuation of the forskolin-induced cAMP accumulation in CHO.K1-CRTh2 cells.
For each concentration value on the dose-response curve, test compounds are prepared in assay stimulation buffer (HBSS, 5 mM HEPES, 10 μM IBMX ±0.1% human serum albumin) containing DMSO (3% vol/vol) and 5 μL/well is added to an assay plate (384 well white optiplate).
CHO.K1-CRTh2 cultured in tissue culture flasks are washed with PBS and harvested with dissociation buffer. Cells are washed with PBS and re-suspended in stimulation buffer to a concentration of 0.4×10^6/mL and added to the assay plate (10 μL/well).
The assay plate is incubated at room temperature on a shaker for 15 minutes.
A mix of agonist (10 nM Prostaglandin D2) and 5 μM forskolin is prepared in assay stimulation buffer and added to the assay plate (5 μL/well).
In addition, a cAMP standard is serially diluted in assay stimulation buffer and added to separate empty wells on the assay plate (20 μL/well). The cAMP standard allows for the quantification of cAMP generated in CHO.K1-CRTH2 cells.
The assay plate is incubated at room temperature on a shaker for 60 minutes.
Cell lysis buffer (Lysis buffer: Milli-Q H2O, 5 mM HEPES, 0.3% Tween-20, 0.1% human serum albumin) is added to a bead mix (containing Alphascreen™ anti-cAMP acceptor beads 0.06 units/μL, Alphascreen™ streptavidin-coated donor beads 0.06 units/μL, biotinylated cAMP 0.06 units/μL, 10 μM IBMX) is prepared under darkened conditions 60 minutes prior to addition to the assay plate. The resulting lysis mix is added to all wells of the assay plate (40 μL/well).
The assay plate is sealed with Topseal-S™ and incubated in the dark at room temperature on a shaker for 45 minutes. The plate is then counted using a Packard Fusion™ instrument.
The resulting counts per minute are converted to nM cAMP by using the prepared cAMP standard curve. IC50 values (concentration of CRTh2 antagonist required to inhibit 50% of the PGD2-mediated attenuation of forskolin-induced cAMP accumulation in CHO.K1-CRTh2 cells) are then determined using Prism™ software.

Ki (human CRTh2 [1]) [nM]	IC50 (human CRTh2 [2]) [nM]	Compound
4	9	N#Cc1cn(CC(=O)O)cc1-c1cc(C(F)(F)F)cc(S(=O)(=O)NC2CCC2)c1 [Example 50, [3-cyano-4-(3-cyclobutylsulfamoyl-5-trifluoromethyl-phenyl)-pyrrol-1-yl]-acetic acid]
6	16	CCCCNS(=O)(=O)c1cc(-c2cn(CC(=O)O)cc2C#N)cc(C(F)(F)F)c1 [Example 45, [3-(3-butylsulfamoyl-5-trifluoromethyl-phenyl)-4-cyano-pyrrol-1-yl]-acetic acid]
42	14	CN(C)S(=O)(=O)c1cc(-c2cn(CC(=O)O)cc2C#N)cc(C(F)(F)F)c1 [Example 64, [3-Cyano-4-(3-Dimethylsulfamoyl-5-Trifluoromethyl-Phenyl)-Pyrrol-1-yl]-Acetic Acid]
172	69	N#Cc1cn(CC(=O)O)cc1-c1cccc(C(F)(F)F)c1 [Example 12, [3-Cyano-4-(3-trifluoromethyl-phenyl)-pyrrol-1-yl]-acetic acid]
96	147	N#Cc1cn(CC(=O)O)cc1-c1cc(C(F)(F)F)ccc1C(F)(F)F [Example 21, [3-(2,5-Bis-trifluoromethyl-phenyl)-4-cyano-pyrrol-1-yl]-acetic acid]
2	46	N#Cc1cn(CC(=O)O)cc1-c1cc(Cl)cc(S(=O)(=O)N2CCCCC2)c1 [Example 53, {3-[3-Chloro-5-(Piperidine-1-Sulfonyl)-Phenyl]-4-Cyano-Pyrrol-1-yl}-Acetic Acid]
163	255	N#Cc1cn(CC(=O)O)cc1-c1cccc(Cl)c1 [Example 8, [3-(3-Chloro-phenyl)-4-cyano-pyrrol-1-yl]-acetic acid]
34	57	N#Cc1cn(CC(=O)O)cc1-c1cc(Cl)cc(Cl)c1 [Example 2, [3-Cyano-4-(3,5-Dichloro-Phenyl)-Pyrrol-1-yl]-Acetic Acid]
2	12	N#Cc1cn(CC(=O)O)cc1-c1cc(C(F)(F)F)cc(S(=O)(=O)N2CCCCC2)c1 [Example 40, {3-Cyano-4-[3-(Piperidine-1-Sulfonyl)-5-Trifluoromethyl-Phenyl]Pyrrol-1-yl}-Acetic Acid]
40	25	N#Cc1cn(CC(=O)O)cc1-c1cc(C(F)(F)F)cc(Cl)c1F [Example 25, [3-(3-Chloro-2-fluoro-5-trifluoromethyl-phenyl) -4-cyano-pyrrol-1-yl]-acetic acid]
244	846	N#Cc1cn(CC(=O)O)cc1-c1cccc2c1OC(F)(F)O2 [Example 3]
6	17	N#Cc1cn(CC(=O)O)cc1-c1cc(C(F)(F)F)cc(S(=O)(=O)N2CCCC2)c1 [Example 42, {3-cyano-4-[3-(pyrrolidine-1-sulfonyl)-5-trifluoromethyl-phenyl]-pyrrol-1-yl}-acetic acid]
144	282	N#Cc1cn(CC(=O)O)cc1-c1cc(Cl)ccc1Cl [Example 15, [3-Cyano-4-(2,5-dichloro-phenyl)-pyrrol-1-yl]-acetic acid]
10	28	N#Cc1cn(CC(=O)O)cc1-c1cc(C(F)(F)F)cc(C(F)(F)F)c1 [Example 1, [3-(3,5-Bis-Trifluoromethyl-Phenyl)-4-Cyano-Pyrrol-1-yl]-Acetic Acid]
89	161	N#Cc1cn(CC(=O)O)cc1-c1cc(C(F)(F)F)ccc1Cl [Example 17, [3-(2-Chloro-5-trifluoromethyl-phenyl)-4-cyano-pyrrol-1-yl]-acetic acid]

From US20100087432A1, “PYRROLE DERIVATIVES HAVING CRTH2 RECEPTOR ANTAGONIST ACTIVITY” (priority 2004, published 2010)
